Target: T1, GST-tagged truncated human mutant G2019S LRRK2 (Homo sapiens, UniProt Q5S007, G2019S)
T1 construct: GST-tagged truncated human mutant G2019S LRRK2; purchased Life Technologies Corporation (Carlsbad, CA)
Experiment: LRRK2 G2019S Km ATP LanthaScreen assay
Assay type: biochemical
Details: 134 μM ATP (Km ATP), LRRKtide substrate, mean of several tests, read-out: LRRK2 pIC50 (converted)
How it was run: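 GST-tagged truncated human LRRK2 G2019S (1.25 nM enzyme solution) was preincubated 15 min with compound, then reacted 90 min at ambient temperature with fluorescein-LRRKtide (400 nM solution) and 134 μM ATP (Km) in Tris pH 8.5. EDTA stop; Tb anti-phospho-LRRKtide TR-FRET (520/495 ratio). IC50 from 4-parameter fits, mean of several runs.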

T1 sequence (Q5S007 970-2527 G2019S limits assumed): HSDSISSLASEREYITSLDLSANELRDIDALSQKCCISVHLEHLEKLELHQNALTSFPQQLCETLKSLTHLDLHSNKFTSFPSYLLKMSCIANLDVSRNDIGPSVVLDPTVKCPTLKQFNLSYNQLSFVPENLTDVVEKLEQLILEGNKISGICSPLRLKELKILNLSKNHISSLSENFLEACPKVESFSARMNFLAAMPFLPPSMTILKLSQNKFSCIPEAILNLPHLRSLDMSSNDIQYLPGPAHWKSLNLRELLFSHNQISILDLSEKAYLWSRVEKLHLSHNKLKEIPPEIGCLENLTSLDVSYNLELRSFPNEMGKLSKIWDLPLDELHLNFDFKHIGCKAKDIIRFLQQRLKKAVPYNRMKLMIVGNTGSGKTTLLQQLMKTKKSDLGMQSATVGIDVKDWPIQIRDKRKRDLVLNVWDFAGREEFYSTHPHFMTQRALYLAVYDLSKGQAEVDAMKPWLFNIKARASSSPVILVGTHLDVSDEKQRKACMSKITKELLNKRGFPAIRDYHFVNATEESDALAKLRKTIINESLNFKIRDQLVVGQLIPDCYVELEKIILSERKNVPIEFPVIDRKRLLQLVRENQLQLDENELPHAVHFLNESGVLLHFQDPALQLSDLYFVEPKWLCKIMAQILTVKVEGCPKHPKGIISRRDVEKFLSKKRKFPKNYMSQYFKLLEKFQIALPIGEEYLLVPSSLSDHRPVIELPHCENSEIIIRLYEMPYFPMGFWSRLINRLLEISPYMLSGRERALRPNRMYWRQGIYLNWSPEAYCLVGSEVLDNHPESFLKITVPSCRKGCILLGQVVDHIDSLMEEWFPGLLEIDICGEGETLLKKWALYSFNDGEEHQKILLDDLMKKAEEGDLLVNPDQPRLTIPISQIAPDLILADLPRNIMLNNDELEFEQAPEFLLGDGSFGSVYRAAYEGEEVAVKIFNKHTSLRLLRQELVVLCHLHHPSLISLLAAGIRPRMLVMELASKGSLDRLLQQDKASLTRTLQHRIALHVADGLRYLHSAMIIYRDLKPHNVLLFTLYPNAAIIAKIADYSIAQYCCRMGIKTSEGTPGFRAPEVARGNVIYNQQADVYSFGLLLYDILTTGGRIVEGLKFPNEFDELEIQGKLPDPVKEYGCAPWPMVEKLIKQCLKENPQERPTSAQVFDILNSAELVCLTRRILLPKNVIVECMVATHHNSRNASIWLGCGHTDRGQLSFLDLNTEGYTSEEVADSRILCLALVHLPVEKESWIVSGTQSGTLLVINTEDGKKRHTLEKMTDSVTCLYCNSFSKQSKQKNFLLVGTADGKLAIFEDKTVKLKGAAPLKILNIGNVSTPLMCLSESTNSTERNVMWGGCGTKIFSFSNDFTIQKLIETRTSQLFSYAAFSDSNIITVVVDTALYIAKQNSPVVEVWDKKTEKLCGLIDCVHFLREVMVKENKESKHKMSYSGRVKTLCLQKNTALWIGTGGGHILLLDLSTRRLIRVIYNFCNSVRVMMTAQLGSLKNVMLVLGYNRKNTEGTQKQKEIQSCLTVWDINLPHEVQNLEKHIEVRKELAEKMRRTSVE

Row | Structure (SMILES) | IC50 [nM]
1 | Cn1ncc(C2CC2C(=O)Nc2cc3cc(N4CCN(C5(C)CCOC5)CC4)c(Cl)cc3cn2)c1C(F)(F)F (single isomer, unassigned) [Ex-10.27, (1R,2R or 1S,2S)-N-[7-chloro-6-[4-((R or S)-3-methyltetrahydrofuran-3-yl)piperazin-4-ium-1-yl]-3-isoquinolyl]-2-[1-methyl-5-(trifluoromethyl)pyrazol-4-yl]cyclopropanecarboxamide] | 38
2 | Cn1ncc(C2CC2C(=O)Nc2cc3cc(N4CCN(C5(C)CCOC5)CC4)c(Cl)cc3cn2)c1C(F)(F)F (single isomer, unassigned) [Ex-10.28, (1R,2R or 1S,2S)-N-[7-chloro-6-[4-((R or S)-3-methyltetrahydrofuran-3-yl)piperazin-4-ium-1-yl]-3-isoquinolyl]-2-[1-methyl-5-(trifluoromethyl)pyrazol-4-yl]cyclopropanecarboxamide] | 56.2
3 | CC1(N2CCN(c3cc4cc(NC(=O)C5CC5c5ccco5)ncc4cc3Cl)CC2)COCC1O (single isomer, unassigned) [Ex-10.29, (1R,2R or 1S,2S)-N-[7-chloro-6-[4-((3R,4R or 3S,4S)-4-hydroxy-3-methyl-tetrahydrofuran-3-yl)piperazin-1-yl]-3-isoquinolyl]-2-(2-furyl)cyclopropanecarboxamide] | 0.275
4 | CC1(N2CCN(c3cc4cc(NC(=O)C5CC5c5ccco5)ncc4cc3Cl)CC2)COCC1O (single isomer, unassigned) [Ex-10.30, (1R,2R or 1S,2S)-N-[7-chloro-6-[4-((3R,4R or 3S,4S)-4-hydroxy-3-methyl-tetrahydrofuran-3-yl)piperazin-1-yl]-3-isoquinolyl]-2-(2-furyl)cyclopropanecarboxamide] | 0.0813
5 | CC1(N2CCN(c3cc4cc(NC(=O)C5CC5C5CCOCC5)ncc4cc3Cl)CC2)COCC1O (single isomer, unassigned) [Ex-10.31, (1R,2R or 1S,2S)-N-[7-chloro-6-[4-((3R,4R or 3S,4S)-4-hydroxy-3-methyl-tetrahydrofuran-3-yl)piperazin-1-yl]-3-isoquinolyl]-2-tetrahydropyran-4-yl-cyclopropanecarboxamide] | 0.0813
6 | Cc1cc2cnc(NC(=O)C3CC3c3cnn(C)c3C(F)(F)F)cc2cc1N1CCN(C2(C)CCOC2)CC1 (single isomer, unassigned) [Ex-10.33, (1R,2R or 1S,2S)-N-[7-methyl-6-[4-((R or S)-3-methyltetrahydrofuran-3-yl)piperazin-1-yl]-3-isoquinolyl]-2-[1-methyl-5-(trifluoromethyl)pyrazol-4-yl]cyclopropanecarboxamide] | 4.79
7 | Cc1cc2cnc(NC(=O)C3CC3c3cnn(C)c3C(F)(F)F)cc2cc1N1CCN(C2(C)CCOC2)CC1 (single isomer, unassigned) [Ex-10.34, (1R,2R or 1S,2S)-N-[7-methyl-6-[4-((R or S)-3-methyltetrahydrofuran-3-yl)piperazin-1-yl]-3-isoquinolyl]-2-[1-methyl-5-(trifluoromethyl)pyrazol-4-yl]cyclopropanecarboxamide] | 69.2
8 | Cc1cc2cnc(NC(=O)C3CC3c3cnn(C)c3C(F)(F)F)cc2cc1N1CCN(C2(C)CCOC2)CC1 (single isomer, unassigned) [Ex-10.35, (1R,2R or 1S,2S)-N-[7-methyl-6-[4-((R or S)-3-methyltetrahydrofuran-3-yl)piperazin-1-yl]-3-isoquinolyl]-2-[1-methyl-5-(trifluoromethyl)pyrazol-4-yl]cyclopropanecarboxamide] | 1.7
9 | Cc1cc2cnc(NC(=O)C3CC3c3cnn(C)c3C(F)(F)F)cc2cc1N1CCN(C2(C)CCOC2)CC1 (single isomer, unassigned) [Ex-10.36, (1R,2R or 1S,2S)-N-[7-methyl-6-[4-((R or S)-3-methyltetrahydrofuran-3-yl)piperazin-1-yl]-3-isoquinolyl]-2-[1-methyl-5-(trifluoromethyl)pyrazol-4-yl]cyclopropanecarboxamide] | 107
10 | CCC1C(C(=O)Nc2cc3cc(N4CCN(C5(C)CCOC5)CC4)c(C)cc3cn2)C1c1cnn(C)c1 (single isomer, unassigned) [Ex-10.37, (1R,2R,3R, 1R,2S,3R, 1S,2R,3S, or 1S,2S,3S)-2-ethyl-N-[7-methyl-6-[4-((R or S)-3-methyltetrahydrofuran-3-yl)piperazin-4-ium-1-yl]-3-isoquinolyl]-3-(1-methylpyrazol-4-yl)cyclopropanecarboxamide] | 0.0813
11 | CCC1C(C(=O)Nc2cc3cc(N4CCN(C5(C)CCOC5)CC4)c(C)cc3cn2)C1c1cnn(C)c1 (single isomer, unassigned) [Ex-10.38, (1R,2R,3R, 1R,2S,3R, 1S,2R,3S, or 1S,2S,3S)-2-ethyl-N-[7-methyl-6-[4-((R or S)-3-methyltetrahydrofuran-3-yl)piperazin-4-ium-1-yl]-3-isoquinolyl]-3-(1-methylpyrazol-4-yl)cyclopropanecarboxamide] | 0.759
12 | CC1(N2CCN(c3cc4cc(NC(=O)C5CCC5C#N)ncc4cc3Cl)CC2)COCC1O (single isomer, unassigned) [Ex-10.39, (1R,2R of 1S,2S)-N-[7-chloro-6-[4-((3R,4R or 3S,4S)-4-hydroxy-3-methyl-tetrahydrofuran-3-yl)piperazin-1-yl]-3-isoquinolyl]-2-cyano-cyclobutanecarboxamide] | 0.0813
13 | Cc1cc2cnc(NC(=O)C3CCOC(C)(C)C3)cc2cc1N1CCN(C2(C)CCOC2)CC1 (single isomer, unassigned) [Ex-10.41, (4R or 4S)-2,2-dimethyl-N-[7-methyl-6-[4-((R or S)-3-methyltetrahydrofuran-3-yl)piperazin-1-yl]-3-isoquinolyl]tetrahydropyran-4-carboxamide] | 0.309
14 | Cc1cc2cnc(NC(=O)C3CCOC(C)(C)C3)cc2cc1N1CCN(C2(C)CCOC2)CC1 (single isomer, unassigned) [Ex-10.42, (4R or 4S)-2,2-dimethyl-N-[7-methyl-6-[4-((R or S)-3-methyltetrahydrofuran-3-yl)piperazin-1-yl]-3-isoquinolyl]tetrahydropyran-4-carboxamide] | 0.525
15 | Cc1cc2cnc(NC(=O)C3CCOC(C)(C)C3)cc2cc1N1CCN(C2(C)CCOC2)CC1 (single isomer, unassigned) [Ex-10.43, (4R or 4S)-2,2-dimethyl-N-[7-methyl-6-[4-((R or S)-3-methyltetrahydrofuran-3-yl)piperazin-1-yl]-3-isoquinolyl]tetrahydropyran-4-carboxamide] | 19.5
16 | Cc1cc2cnc(NC(=O)C3CCOC(C)(C)C3)cc2cc1N1CCN(C2(C)CCOC2)CC1 (single isomer, unassigned) [Ex-10.44, (4R or 4S)-2,2-dimethyl-N-[7-methyl-6-[4-((R or S)-3-methyltetrahydrofuran-3-yl)piperazin-1-yl]-3-isoquinolyl]tetrahydropyran-4-carboxamide] | 209
17 | Cc1cc2cnc(NC(=O)C3C4CCOCC43)cc2cc1N1CCN(C2(C)CCOC2)CC1 (single isomer, unassigned) [Ex-10.45, (1S,6R,7R, 1R,6S,7R, or 1R, 6S,7S, or 1S,6S,7S)-N-(7-methyl-6-(4-((R or S)-3-methyltetrahydrofuran-3-yl)piperazin-1-yl)isoquinolin-3-yl)-3-oxabicyclo[4.1.0]heptane-7-carboxamide] | 0.145
18 | Cc1cc2cnc(NC(=O)C3C4CCOCC43)cc2cc1N1CCN(C2(C)CCOC2)CC1 (single isomer, unassigned) [Ex-10.46, (1S,6R,7R, 1R,6S,7R, or 1R, 6S,7S, or 1S,6S,7S)-N-(7-methyl-6-(4-((R or S)-3-methyltetrahydrofuran-3-yl)piperazin-1-yl)isoquinolin-3-yl)-3-oxabicyclo[4.1.0]heptane-7-carboxamide] | 0.457
19 | Cc1cc2cnc(NC(=O)C3C4CCOCC43)cc2cc1N1CCN(C2(C)CCOC2)CC1 (single isomer, unassigned) [Ex-10.47, (1S,6R,7R, 1R,6S,7R, or 1R, 6S,7S, or 1S,6S,7S)-N-(7-methyl-6-(4-((R or S)-3-methyltetrahydrofuran-3-yl)piperazin-1-yl)isoquinolin-3-yl)-3-oxabicyclo[4.1.0]heptane-7-carboxamide] | 10.2
20 | Cc1cc2cnc(NC(=O)C3C4CCOCC43)cc2cc1N1CCN(C2(C)CCOC2)CC1 (single isomer, unassigned) [Ex-10.48, (1S,6R,7R, 1R,6S,7R, or 1R, 6S,7S, or 1S,6S,7S)-N-(7-methyl-6-(4-((R or S)-3-methyltetrahydrofuran-3-yl)piperazin-1-yl)isoquinolin-3-yl)-3-oxabicyclo[4.1.0]heptane-7-carboxamide] | 17.4
21 | CCC1C(C(=O)Nc2cc3cc(N4CCN(C5(C)COCC5F)CC4)c(Cl)cc3cn2)C1c1ccn(C)n1 (single isomer, unassigned) [Ex-10.49, (1R,2R,3R, 1R,2S,3R, or 1S,2R,3S, or 1S,2S,3S)-N-[7-chloro-6-[4-((3R,4R or 3S,4S)-4-fluoro-3-methyl-tetrahydrofuran-3-yl)piperazin-1-yl]-3-isoquinolyl]-2-ethyl-3-(1-methylpyrazol-3-yl)cyclopropanecarboxamide] | 0.0813
22 | CCC1C(C(=O)Nc2cc3cc(N4CCN(C5(C)COCC5F)CC4)c(Cl)cc3cn2)C1c1ccn(C)n1 (single isomer, unassigned) [Ex-10.50, (1R,2R,3R, 1R,2S,3R, or 1S,2R,3S, or 1S,2S,3S)-N-[7-chloro-6-[4-((3R,4R or 3S,4S)-4-fluoro-3-methyl-tetrahydrofuran-3-yl)piperazin-1-yl]-3-isoquinolyl]-2-ethyl-3-(1-methylpyrazol-3-yl)cyclopropanecarboxamide] | 0.0813

Source: patent publication US12516039B2, “N-linked isoquinoline amides as LRRK2 inhibitors, pharmaceutical compositions, and uses thereof” (Merck Sharp & Dohme LLC, priority 2020, dated 2026)
